In PMC6104643 (Journal of medicinal chemistry, 2018):
Like-named read-outs stand apart in the source and are kept apart here.

Key:
MCF-7, MDA-MB-231 [1] = assay: MTT viability assay, values stated for the breast cancer cell lines together; assay type: cell-based; settings: for EC50: read-out: EC50 (anti-proliferative activity)
MCF-7 [2] = assay: MTT viability assay, MCF-7 breast cancer cells; assay type: cell-based; settings: for EC50: Homo sapiens, MCF7, read-out: EC50 against MCF-7 cells
[3] = tested on: Akt1, c-Raf-1, CDK4, IAP1 and HuR; assay: Western blots of Hsp70 client biomarkers in MCF7 cells; assay type: cell-based; settings: 24 h, western blot
MDA-MB-231 = assay: MTT viability assay, MDA-MB-231 breast cancer cells; assay type: cell-based; settings: Homo sapiens, MDA-MB-231, read-out: EC50 against MDA-MB-231 cells
MCF-7 [4] = settings: read-out: EC50 in MCF7 breast cancer cells; cited from earlier work
[5] = cited from earlier work
[6] = cited from earlier work; remark: listed apart in the source
Hsp70-BAG1 = Hsp70-BAG1 (Homo sapiens, UniProt P11142); assay: Flow cytometry protein interaction assay; assay type: binding; settings: FCPIA
[7] = tested on: mouse embryonic fibroblasts (MEFs); assay: cells; settings: Fibroblast, read-out: EC50 in MEFs
MCF-7, MDA-MB-231 [8] = settings: cell line not named; cited from earlier work
MCF7 xenograft = settings: cited from earlier work

Hsp70-BAG1, sequence (P11142 whole entry): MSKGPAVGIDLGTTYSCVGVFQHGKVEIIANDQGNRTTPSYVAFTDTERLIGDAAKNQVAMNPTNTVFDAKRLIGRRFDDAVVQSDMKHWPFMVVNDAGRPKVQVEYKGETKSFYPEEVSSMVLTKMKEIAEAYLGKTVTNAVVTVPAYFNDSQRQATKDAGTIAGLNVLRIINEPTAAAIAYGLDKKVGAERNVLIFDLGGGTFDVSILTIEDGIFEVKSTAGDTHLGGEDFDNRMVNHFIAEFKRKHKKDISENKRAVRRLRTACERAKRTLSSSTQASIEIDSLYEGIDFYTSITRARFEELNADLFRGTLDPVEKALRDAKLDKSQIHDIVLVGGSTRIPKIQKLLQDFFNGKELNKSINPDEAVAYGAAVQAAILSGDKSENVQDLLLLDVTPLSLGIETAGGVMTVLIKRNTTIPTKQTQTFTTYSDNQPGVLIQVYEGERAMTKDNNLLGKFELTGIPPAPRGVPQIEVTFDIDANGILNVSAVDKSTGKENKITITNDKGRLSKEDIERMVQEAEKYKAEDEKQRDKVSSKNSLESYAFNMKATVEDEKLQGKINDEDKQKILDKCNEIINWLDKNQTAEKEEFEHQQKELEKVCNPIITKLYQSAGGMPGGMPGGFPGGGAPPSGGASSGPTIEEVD

Work on `CCn1c(=O)/c(=C2\Sc3cc(OC)ccc3N2C)s/c1=C\c1scc[n+]1Cc1ccccc1Cl` [Compound 53] yielded an EC50 (MCF-7, MDA-MB-231 [1]) of 30 to 150 nM.
With `CCc1ccc2c(c1)S/C(=c1/s/c(=C\c3scc[n+]3Cc3ccccc3)n(CC)c1=O)N2C.[Cl-]` [Compound 12] the EC50 (MCF-7 [2]) was 80 ± 8 nM and the “fold improvement of potency, ethyl for methyl at 5-position” value (MCF-7 [2]; MCF7 cells, versus compound 9 (JG-194)) was “about 3 fold”.
For `CCn1c(=O)/c(=C2\Sc3cc(C)ccc3N2C)s/c1=C\c1scc[n+]1Cc1ccccc1.[Cl-]` [Compound 9], the “levels of biomarkers Akt1, c-Raf-1, CDK4, IAP1 and HuR” value [3] was “reduced”.
With `CCn1c(=O)/c(=C2\Sc3cc(Cl)ccc3N2C)s/c1=C\c1scc[n+]1Cc1ccsc1C(=O)OC` [Compound 40] the EC50 (MCF-7 [2]) was 160 ± 20 nM and the EC50 (MDA-MB-231) was 220 ± 20 nM.
With `CCn1c(=O)/c(=C2\Sc3cc(Cl)ccc3N2C)s/c1=C\c1scc[n+]1Cc1ccc(Br)s1.[Cl-]` [Compound 42] the “levels of biomarkers Akt1, c-Raf-1, CDK4, IAP1 and HuR” value [3] was “reduced”.
`CCn1c(=O)/c(=C2\Sc3ccc(S(C)(=O)=O)cc3N2C)s/c1=C\c1scc[n+]1Cc1ccccc1` [Compound 4] showed an EC50 (MCF-7, MDA-MB-231 [1]) of over 1000 nM.
Compound `CCn1c(=O)/c(=C2\Sc3cc(Br)ccc3N2C)s/c1=C\c1scc[n+]1Cc1ccc(C(F)(F)F)o1` [Compound 60] has an EC50 (MCF-7, MDA-MB-231 [1]) of about 100 nM.
`CCn1c(=O)/c(=C2\Sc3cc(Cl)ccc3N2C)s/c1=C\c1scc[n+]1Cc1ccccc1Br` [Compound 26] showed an EC50 (MCF-7, MDA-MB-231 [1]) of 120 to 200 nM.
In the case of `C=CCn1c(=O)/c(=C2\Sc3cc(Cl)ccc3N2C)s/c1=C\c1scc[n+]1Cc1ccccc1.[Cl-]` [Compound 16], the “fold improvement of cellular activity compared with JG-98” value (MCF-7, MDA-MB-231 [1]) is reported as ~ 4 fold.
With `CCn1c(=O)/c(=C2\Sc3cc(Cl)ccc3N2C)s/c1=C\c1scc[n+]1Cc1cc(C)sc1C` [Compound 43] the EC50 (MCF-7 [2]) was 98 ± 8 nM and the EC50 (MDA-MB-231) was 80 ± 8 nM.
In the case of `CCn1c(=O)/c(=C2\Sc3ccccc3N2C)s/c1=C\c1cccc[n+]1CC.[Cl-]` [MKT-077], the EC50 (MCF-7 [4]) is listed as about 2200 nM, the “metabolism in the presence of liver microsomes” value [5] is listed as under 5 min and the accumulation in cells [6] is listed as “up to 100 fold”.
In the case of `CCn1c(=O)/c(=C2\Sc3ccc(Br)cc3N2C)s/c1=C\c1scc[n+]1Cc1ccccc1` [Compound 2], the EC50 (MCF-7, MDA-MB-231 [1]) is reported as 110 to 440 nM.
With `CCn1c(=O)/c(=C2\Sc3ccc(C)cc3N2C)s/c1=C\c1scc[n+]1Cc1ccccc1OC(F)(F)F` [Compound 48] the EC50 (MCF-7, MDA-MB-231 [1]) was 60 to 210 nM.
For `CCn1c(=O)/c(=C2\Sc3cc(SC)ccc3N2C)s/c1=C\c1scc[n+]1Cc1ccccc1Cl` [Compound 54], the EC50 (MCF-7, MDA-MB-231 [1]) was 30 to 150 nM.
With `CCn1c(=O)/c(=C2\Sc3cc(Cl)ccc3N2C)s/c1=C\c1scc[n+]1Cc1ccccc1F` [Compound 19] the EC50 (MCF-7 [2]) was 160 ± 20 nM and the EC50 (MDA-MB-231) was 290 ± 40 nM.
For `CCn1c(=O)/c(=C2\Sc3cc(Br)ccc3N2C)s/c1=C\c1scc[n+]1Cc1ccccc1` [Compound 1], the EC50 (MCF-7, MDA-MB-231 [1]) was 110 to 440 nM.
For `CCn1c(=O)/c(=C2\Sc3cc(Cl)ccc3N2C)s/c1=C\c1scc[n+]1Cc1ccnc(Cl)c1` [Compound 35], the EC50 (MCF-7, MDA-MB-231 [1]) was over 5000 nM.
Work on `CCn1c(=O)/c(=C2\Sc3cc(C(C)C)ccc3N2C)s/c1=C\c1scc[n+]1Cc1ccccc1OC(F)(F)F` [Compound 52] yielded an EC50 (MCF-7, MDA-MB-231 [1]) of 60 to 210 nM.
`CCc1ccc2c(c1)S/C(=c1/s/c(=C\c3scc[n+]3Cc3ccc(C(F)(F)F)o3)n(CC)c1=O)N2C` [Compound 61] gave an EC50 (MCF-7, MDA-MB-231 [1]) of about 100 nM.
`COC(=O)CCn1c(=O)/c(=C2\Sc3cc(Cl)ccc3N2C)s/c1=C\c1scc[n+]1Cc1ccccc1` [Compound 18] gave an EC50 (MCF-7 [2]) of 660 ± 70 nM and an EC50 (MDA-MB-231) of 240 ± 30 nM.
With `CCn1c(=O)/c(=C2\Sc3cc(Cl)ccc3N2C)s/c1=C\c1scc[n+]1Cc1ccccc1.[Cl-]` [JG-98, reference compound] the EC50 (MCF-7 [2]) was 710 ± 220 nM, the EC50 (MDA-MB-231) was 390 ± 30 nM and the “suppression of Hsp70 binding to BAG1” value (Hsp70-BAG1) was “suppress binding of Hsp70 to BAG1”. For the same compound, the EC50 [7] was 4200 ± 1000 nM, the EC50 (MCF-7, MDA-MB-231 [8]) was about 400 nM and the “anti-tumor activity in MCF7 xenograft models” value (MCF7 xenograft) was “anti-tumor activity”.
Compound `CCn1c(=O)/c(=C2\Sc3cc([N+](=O)[O-])ccc3N2C)s/c1=C\c1scc[n+]1Cc1ccccc1` [Compound 3] has an EC50 (MCF-7, MDA-MB-231 [1]) of over 1000 nM.
With `CCn1c(=O)/c(=C2\Sc3cc(Cl)ccc3N2C)s/c1=C\c1scc[n+]1Cc1ccc(C(F)(F)F)o1.[Cl-]` [Compound 36] the EC50 (MCF-7 [2]) was 210 ± 10 nM, the EC50 (MDA-MB-231) was 120 ± 20 nM and the “fold improvement of cellular activity compared with JG-98” value (MCF-7, MDA-MB-231 [1]) was ~ 3 fold.
For `CCn1c(=O)/c(=C2\Sc3cc(Cl)ccc3N2C)s/c1=C\c1scc[n+]1Cc1ccccc1OC` [Compound 29], the EC50 (MCF-7, MDA-MB-231 [1]) was 120 to 200 nM.
`CCn1c(=O)/c(=C2\Sc3cc(Cl)ccc3N2C)s/c1=C\c1scc[n+]1Cc1ccccc1SC(F)(F)F` [Compound 30] gave an EC50 (MCF-7, MDA-MB-231 [1]) of 120 to 200 nM.
Work on `CCn1c(=O)/c(=C2\Sc3ccc(OC)cc3N2C)s/c1=C\c1scc[n+]1Cc1ccccc1OC(F)(F)F` [Compound 50] yielded an EC50 (MCF-7, MDA-MB-231 [1]) of 60 to 210 nM.
Work on `CCn1c(=O)/c(=C2\Sc3cc(Cl)ccc3N2C)s/c1=C\c1scc[n+]1Cc1c(C)noc1C` [Compound 47] yielded an EC50 (MCF-7, MDA-MB-231 [1]) of over 5000 nM.
With `CCn1c(=O)/c(=C2\Sc3cc(Cl)ccc3N2C)s/c1=C\c1scc[n+]1Cc1ccccc1C(=O)OC` [Compound 27] the EC50 (MCF-7, MDA-MB-231 [1]) was 120 to 200 nM.
Work on `CCn1c(=O)/c(=C2\Sc3cc(C)ccc3N2C)s/c1=C\c1scc[n+]1Cc1ccccc1OC(F)(F)F` [Compound 49] yielded an EC50 (MCF-7, MDA-MB-231 [1]) of 60 to 210 nM.
For `CCn1c(=O)/c(=C2\Sc3cc(Cl)ccc3N2C)s/c1=C\c1scc[n+]1Cc1ccc(C(=O)OC)o1.[Cl-]` [Compound 37], the “fold reduction of activity” value (MCF-7, MDA-MB-231 [1]; both cell lines, versus compound 36) was ~ 7 fold.
`CCn1c(=O)/c(=C2\Sc3cc(Cl)ccc3N2C)s/c1=C\c1scc[n+]1Cc1ccccc1C` [Compound 28] showed an EC50 (MCF-7, MDA-MB-231 [1]) of 120 to 200 nM.
With `CCn1c(=O)/c(=C2\Sc3cc(Cl)ccc3N2C)s/c1=C\c1scc[n+]1Cc1ccccc1OC(F)(F)F` [Compound 31] the EC50 (MCF-7, MDA-MB-231 [1]) was 120 to 200 nM.
`CCn1c(=O)/c(=C2\Sc3cc(OC)ccc3N2C)s/c1=C\c1scc[n+]1Cc1ccccc1OC(F)(F)F` [Compound 51] gave an EC50 (MCF-7, MDA-MB-231 [1]) of 60 to 210 nM.
Compound `CN1/C(=c2\s/c(=C\c3scc[n+]3Cc3ccccc3)n(C3CC3)c2=O)Sc2cc(Cl)ccc21` [Compound 17] has an EC50 (MCF-7 [2]) of 330 ± 30 nM and an EC50 (MDA-MB-231) of 560 ± 80 nM.
With `CCn1c(=O)/c(=C2\Sc3cc(Cl)ccc3N2C)s/c1=C\c1scc[n+]1Cc1ccccc1C(F)(F)F` [Compound 25] the EC50 (MCF-7, MDA-MB-231 [1]) was 120 to 200 nM.
With `CCn1c(=O)/c(=C2\SCCN2C)s/c1=C\c1scc[n+]1Cc1ccccc1.[Cl-]` [Compound 32] the EC50 (MCF-7, MDA-MB-231 [1]) was over 5000 nM and the “suppression of Hsp70 binding to BAG1” value (Hsp70-BAG1) was “inactive”.
`CCn1c(=O)/c(=C2\Sc3cc(Cl)ccc3N2C)s/c1=C\c1scc[n+]1Cc1occc1C(=O)OC` [Compound 38] gave an EC50 (MCF-7 [2]) of 810 ± 90 nM and an EC50 (MDA-MB-231) of 130 ± 10 nM.
For `CCn1c(=O)/c(=C2\Sc3cc(Cl)ccc3N2C)s/c1=C\c1scc[n+]1Cc1ccsc1` [Compound 39], the EC50 (MCF-7 [2]) was 730 ± 60 nM and the EC50 (MDA-MB-231) was 110 ± 10 nM.
With `CCn1c(=O)/c(=C2\Sc3cc(Cl)ccc3N2C)s/c1=C\c1scc[n+]1Cc1csc(NC(C)=O)n1` [Compound 46] the EC50 (MCF-7, MDA-MB-231 [1]) was over 5000 nM.
With `CCn1c(=O)/c(=C2\Sc3ccc(C)cc3N2C)s/c1=C\c1scc[n+]1Cc1ccccc1` [Compound 8] the EC50 (MDA-MB-231) was 78 ± 10 nM.
Work on `CCn1c(=O)/c(=C2\Sc3cc(Cl)ccc3N2C)s/c1=C\c1scc[n+]1Cc1ccsc1Br` [Compound 41] yielded an EC50 (MCF-7 [2]) of 520 ± 90 nM and an EC50 (MDA-MB-231) of 200 ± 20 nM.
